Measured values reported in ChEMBL document CHEMBL1201862, “PubChem BioAssay data set” (2004).
Active and inactive are the calls of the source.

Legend:
[1] = inhibitors of intracellular T. cruzi replication, confirmation, NIH3T3 host cells, beta-gal luminescence (AID 2044); assay type: functional, cell-based;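 note: intracellular parasites grown in NIH/3T3 mouse fibroblasts as host cells; luminescent beta-galactosidase reporter signal from transgenic T. cruzi replicating inside host cells; inhibitors lower the luminescence signal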
[2] = cytotoxicity toward NIH3T3 fibroblasts, dose response, counter-screen, cell-based, ATP luminescence, mouse fibroblasts (AID 2010); assay type: functional;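 note: cells exposed to compound for about 90 hours before reading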
[3] = Shn3 3'UTR reporter inhibitors, dose response, cell-based, Clone20 osteoblasts, firefly luciferase, cherry-picked (AID 624132); assay type: functional;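 note: firefly luciferase luminescence from reporter carrying the Shn3 3'UTR in osteoblasts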
Exodeoxyribonuclease V = target: T1, Exodeoxyribonuclease V (Escherichia coli (strain K12), UniProt P04993+P07648+P08394); assay: E. coli RecBCD inhibitors, dose response, counter-screen for AddAB inhibitor project, absorbance, V66 E. coli, mutant T4 phage (AID 492957); assay type: functional, cell-based, Escherichia coli str. K-12 substr. MG1655
T1 sequence (P04993 whole entry): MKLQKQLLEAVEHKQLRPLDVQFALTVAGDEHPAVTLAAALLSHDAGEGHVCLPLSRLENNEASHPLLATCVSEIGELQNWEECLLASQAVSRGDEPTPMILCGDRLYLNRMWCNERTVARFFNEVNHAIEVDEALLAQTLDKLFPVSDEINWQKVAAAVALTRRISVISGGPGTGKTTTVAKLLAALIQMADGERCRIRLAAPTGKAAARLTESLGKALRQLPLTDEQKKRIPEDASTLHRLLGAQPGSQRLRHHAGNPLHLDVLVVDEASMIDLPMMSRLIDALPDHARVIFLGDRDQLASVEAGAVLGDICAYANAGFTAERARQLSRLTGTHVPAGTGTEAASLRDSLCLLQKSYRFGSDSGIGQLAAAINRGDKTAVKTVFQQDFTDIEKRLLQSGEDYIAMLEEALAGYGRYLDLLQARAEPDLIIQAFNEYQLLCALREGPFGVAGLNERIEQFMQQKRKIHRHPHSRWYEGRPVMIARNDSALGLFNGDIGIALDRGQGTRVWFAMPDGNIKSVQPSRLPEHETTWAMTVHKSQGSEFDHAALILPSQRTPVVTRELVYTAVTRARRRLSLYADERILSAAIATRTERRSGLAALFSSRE
T1 sequence (P07648 whole entry): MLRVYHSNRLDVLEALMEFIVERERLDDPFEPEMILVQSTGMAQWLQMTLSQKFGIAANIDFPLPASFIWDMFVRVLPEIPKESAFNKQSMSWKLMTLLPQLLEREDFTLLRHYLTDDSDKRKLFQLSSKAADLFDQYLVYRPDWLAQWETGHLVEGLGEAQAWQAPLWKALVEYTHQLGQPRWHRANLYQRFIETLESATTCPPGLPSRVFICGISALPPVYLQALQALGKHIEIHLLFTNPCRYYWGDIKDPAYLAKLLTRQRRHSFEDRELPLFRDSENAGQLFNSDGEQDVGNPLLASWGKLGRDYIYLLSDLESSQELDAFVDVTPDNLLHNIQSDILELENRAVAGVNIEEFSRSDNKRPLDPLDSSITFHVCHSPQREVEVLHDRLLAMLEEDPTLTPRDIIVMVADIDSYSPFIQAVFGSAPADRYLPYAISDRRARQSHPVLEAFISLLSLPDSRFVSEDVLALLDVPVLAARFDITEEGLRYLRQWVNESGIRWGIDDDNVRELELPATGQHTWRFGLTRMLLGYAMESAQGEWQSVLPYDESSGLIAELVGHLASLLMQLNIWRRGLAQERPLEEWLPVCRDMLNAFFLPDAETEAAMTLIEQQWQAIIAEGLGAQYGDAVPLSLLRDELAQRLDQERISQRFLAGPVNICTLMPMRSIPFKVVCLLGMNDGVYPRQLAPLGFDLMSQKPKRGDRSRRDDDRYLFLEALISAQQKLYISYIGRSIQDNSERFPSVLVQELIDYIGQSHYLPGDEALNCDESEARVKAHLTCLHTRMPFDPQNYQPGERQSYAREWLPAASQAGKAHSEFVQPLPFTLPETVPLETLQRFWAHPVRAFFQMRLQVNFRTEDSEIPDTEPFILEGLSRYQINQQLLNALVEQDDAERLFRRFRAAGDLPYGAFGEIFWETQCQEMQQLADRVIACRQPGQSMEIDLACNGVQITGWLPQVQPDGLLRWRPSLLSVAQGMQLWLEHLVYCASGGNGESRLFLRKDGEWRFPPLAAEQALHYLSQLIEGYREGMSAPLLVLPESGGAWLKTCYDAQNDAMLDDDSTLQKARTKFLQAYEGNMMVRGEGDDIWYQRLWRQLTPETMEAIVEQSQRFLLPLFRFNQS
T1 sequence (P08394 whole entry): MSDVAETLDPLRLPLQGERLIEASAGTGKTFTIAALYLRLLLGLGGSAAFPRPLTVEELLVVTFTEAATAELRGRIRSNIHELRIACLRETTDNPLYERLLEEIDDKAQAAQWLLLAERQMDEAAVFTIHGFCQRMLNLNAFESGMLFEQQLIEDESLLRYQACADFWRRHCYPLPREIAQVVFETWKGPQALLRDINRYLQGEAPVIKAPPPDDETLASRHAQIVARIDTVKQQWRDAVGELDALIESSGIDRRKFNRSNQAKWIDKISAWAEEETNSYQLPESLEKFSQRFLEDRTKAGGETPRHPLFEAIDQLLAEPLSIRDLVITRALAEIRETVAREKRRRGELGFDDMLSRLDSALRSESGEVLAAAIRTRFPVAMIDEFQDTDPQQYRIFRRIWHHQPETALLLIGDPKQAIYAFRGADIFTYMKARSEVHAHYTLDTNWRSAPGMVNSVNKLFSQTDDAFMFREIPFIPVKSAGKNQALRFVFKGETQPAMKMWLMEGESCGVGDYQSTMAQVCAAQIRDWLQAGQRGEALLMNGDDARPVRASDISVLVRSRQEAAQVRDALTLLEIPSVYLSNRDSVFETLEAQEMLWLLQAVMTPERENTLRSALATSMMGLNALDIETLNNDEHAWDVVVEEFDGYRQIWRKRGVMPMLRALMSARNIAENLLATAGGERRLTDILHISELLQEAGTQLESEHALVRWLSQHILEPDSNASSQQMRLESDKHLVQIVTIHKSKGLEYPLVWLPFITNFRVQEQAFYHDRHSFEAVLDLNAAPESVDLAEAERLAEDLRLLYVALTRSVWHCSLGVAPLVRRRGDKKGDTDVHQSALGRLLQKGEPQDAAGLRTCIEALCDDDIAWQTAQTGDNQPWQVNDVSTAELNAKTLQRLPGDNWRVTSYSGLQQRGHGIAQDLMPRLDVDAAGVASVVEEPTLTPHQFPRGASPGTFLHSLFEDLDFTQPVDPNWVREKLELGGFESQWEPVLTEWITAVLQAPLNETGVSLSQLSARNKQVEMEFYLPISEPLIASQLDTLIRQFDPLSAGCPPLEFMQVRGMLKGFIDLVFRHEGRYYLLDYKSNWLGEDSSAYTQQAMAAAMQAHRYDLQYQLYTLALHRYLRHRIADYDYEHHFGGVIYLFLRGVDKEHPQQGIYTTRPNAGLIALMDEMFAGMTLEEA

Compound	EC50 [1]	EC50 [2]	AC50 [3]	IC50 (Exodeoxyribonuclease V)
Cc1ccc(-n2sc3ccccc3c2=O)cc1	361 nM (active)	9710 nM (active)	–	–
CCC(=O)NC(c1ccc(C)cc1)c1ccc2cccnc2c1O (stereo not given)	481 nM (active)	687 nM (active)	704 nM (active)	> 119000 nM (inactive)
CCCC(=O)NC(c1ccc(Cl)cc1)c1ccc2cccnc2c1O (stereo not given)	226 nM (active)	425 nM (active)	937 nM (active)	> 119000 nM (inactive)
